Experimental data reported in patent publication US6121323A, “Bishydroxyureas” (3M Innovative Properties Company, priority 1997, dated 2000).
pIC50: −log10 of the molar value.

Assays:
[1] = tested on: Leukotriene B4 production in whole human blood; experiment: In vitro human whole blood Leukotriene B4 inhibition; format: cell-based; conditions: A23187 stimulated, read-out: IC50 (concentration producing 50% inhibition of LTB4 production)
Experimental: IN VITRO HUMAN WHOLE BLOOD LEUKOTRIENE B4 INHIBITION
The test method described below measures the ability of compounds to inhibit the production of Leukotriene B4 in whole human blood.
Whole human blood is collected by venipuncture into a 60 cc syringe containing 100 units of heparin.
compounds are disolved in dimethyl sulfoxide. Compounds are tested at concentrations of 100, 33, 11, 3.7, 1.2 and 0.41 μM. Each concentration is tested in duplicate.
Aliquots (1 μL) of compound solution are added to 1 mL polyethylene tubes followed by the addition of 500 μL portion of heparinized blood. The tubes are mixed thoroughly then allowed to preincubate at ambient temperature for 15 minutes. A 25 μL portion of 1 mM Calcium Ionophore A23187 in dimethyl sulfoxide/Tris buffer is added to the tubes. The tubes are mixed thoroughly then incubated at 37° C. for 30 minutes.
The tubes are centrifuged at 2000 rpm for 10 minutes. 100 μL portions of plasma are transferred to 1 mL polyethylene tubes containing 400 μL portions of methanol. The tubes are vortexed then frozen at -20° C. overnight.
The tubes are centrifuged for 10 minutes then 100 μL portions of methanol supernatant are transferred to a 96 well microtiter plate. 10 μL portions are transferred from this plate to a 96 well assay plate. Methanol dilutions of LTB4 standard curve are added to the assay plate. 10 μL portions of blank methanol/plasma supernatant are added to each standard curve well. The assay plate is vacuum dried at ambient temperature. The radioimmunoassay buffer is added, the plate is bath-sonicated for 5 minutes then assayed according to the manufacturer's instructions (Advanced Magnetics; Cambridge, Mass.). Inhibition of LTB4 production is calculated as the ratio of the amount of LTB4 formed in the presence (LTB4 +cpd) and absence (LTB4 no cpd) of compound according the equation below. [formula] IC50 values (concentration of compound producing a 50% inhibition of LTB4 production) are calculated by linear regression analysis of percentage inhibition versus log compound concentration plots.

5-lipoxygenase = target: T1, 5-lipoxygenase (Homo sapiens, UniProt P09917); experiment: 5-Lipoxygenase inhibition in human leukocytes (LTC4 by radioimmunoassay); format: cell-based; conditions: A23187 stimulated, LTC4 readout, read-out: IC50 (concentration producing 50% leukotriene biosynthesis inhibition)
T1 construct: endogenous in cells; host or cells: leukocytes from whole human blood (EDTA, dextran sedimentation, hypotonic lysis)
T1 sequence (P09917 1-674): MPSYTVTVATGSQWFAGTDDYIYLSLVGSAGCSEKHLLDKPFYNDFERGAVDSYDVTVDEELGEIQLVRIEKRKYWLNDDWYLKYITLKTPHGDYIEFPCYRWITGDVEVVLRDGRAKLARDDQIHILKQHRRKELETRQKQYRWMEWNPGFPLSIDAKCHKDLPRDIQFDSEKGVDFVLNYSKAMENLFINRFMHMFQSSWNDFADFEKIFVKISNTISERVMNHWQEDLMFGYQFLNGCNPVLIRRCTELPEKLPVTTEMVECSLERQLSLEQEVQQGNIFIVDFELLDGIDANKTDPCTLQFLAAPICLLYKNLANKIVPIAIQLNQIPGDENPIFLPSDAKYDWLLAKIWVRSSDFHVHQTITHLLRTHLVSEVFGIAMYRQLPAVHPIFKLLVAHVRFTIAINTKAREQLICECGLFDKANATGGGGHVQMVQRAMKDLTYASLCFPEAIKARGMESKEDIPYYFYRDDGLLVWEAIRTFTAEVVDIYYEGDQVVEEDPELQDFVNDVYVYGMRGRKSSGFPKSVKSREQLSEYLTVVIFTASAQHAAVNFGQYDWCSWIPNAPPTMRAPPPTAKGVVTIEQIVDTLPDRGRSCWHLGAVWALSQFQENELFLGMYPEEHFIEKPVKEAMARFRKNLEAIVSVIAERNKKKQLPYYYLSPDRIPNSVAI
Experimental: 5-LIPOXYGENASE INHIBITION IN HUMAN LEUKOCYTES
The test method described below measures the ability of compounds of the invention to inhibit 5-lipoxygenase activity in human leukocytes.
Whole human blood is collected by venipuncture into EDTA (1.4 mL of 0.25M per 60 mL of whole blood). The red blood cells are sedimented with a 6% dextran/0.9% sodium chloride solution at a ratio of 25 mL whole blood to 15 mL dextran solution. The blood/dextran combination is mixed by inversion and the red blood cells are allowed to settle out for 45 minutes at ambient temperature. The plasma/dextran supernatant is removed then centrifuged at ambient temperature at 3000 rpm for 10 minutes. The plasma/dextran supernatant is removed and the cells are resuspended in 10 mL of the plasma/dextran solution. The cell suspension is combined with 20 mL of water, mixed for 1.5 minutes then immediately combined with 10 mL of 3.6% sodium chloride, mixed and centrifuged at ambient temperature at 3000 rpm for 10 minutes. The pellet is washed with 40 mL of Tris buffer (5.55 mM dextrose, 15.36 mM Tris base, 136.9 mM sodium chloride with pH 7.3-7.4) then centrifuged at 3000 rpm for 10 minutes. The pellet is then resuspended into Tris buffer containing 1 mM calcium chloride to provide approximately 1.0×10^7 cells/mL.
Compounds are dissolved in dimethyl sulfoxide. Compounds are tested at concentrations of 100, 33, 11, 3.7, 1.2 and 0.41 μM. Each concentration is tested in duplicate.
A 15 μL portion of Tris buffer containing 1 mM calcium chloride is added to each well of a 96 well microtiter plate. A 1 μL portion of drug solution or vehicle (dimethyl sulfoxide) is added to each well followed by the addition of a 75 μL portion of the cell suspension. The plates are gently mixed then allowed to stand at ambient temperature for 10 minutes. A 10 μL portion of 30 μM A23187 Calcium Ionophore (prepared by dissolving the ionophore in DMSO and then diluting 1:80 into the Tris buffer) is added to each well except the wells that contain the blanks. The blank wells measure the level of LTC4 production in the absence of A23187. The plates are gently mixed then incubated at 37° C. for 10 minutes.
Following incubation the plates are centrifuged at 2000 rpm for 1.5 minutes and the supernatant is removed as quickly as possible to stop the reaction. The supernatants are frozen at -20° C. until they are assayed.
The supernatants are assayed for the presence of Leukotriene C4 by radioimmunoassay which is performed according to the manufacturer's instructions (Advanced Magnetics; Cambridge, Mass.). Inhibition of leukotriene biosynthesis is calculated as the ratio of the amount of LTC4 formed in the presence (LTC4 +cpd) and absence (LTC4 no cpd) of compound according to the following equation. [formula] IC50 values (concentrations of compound producing 50% leukotriene biosynthesis inhibition) are calculated by linear regression analysis of percentage inhibition versus log compound concentration plots.

| SMILES | pIC50 [1] | pIC50 (5-lipoxygenase) |
| --- | --- | --- |
| CCc1cc(Cc2cc(CC)c(NC(=O)N(C)O)c(CC)c2)cc(CC)c1NC(=O)N(C)O [Example 4, 4,4'-Methylenebis(1-hydroxy-1-methyl-3-(2,6-diethylphenyl)urea)] | 5.09 | 5.37 |
| CN(O)C(=O)Nc1ccc(C(c2ccc(NC(=O)N(C)O)cc2)(C(F)(F)F)C(F)(F)F)cc1 [Example 5, 4,4'-(2,2-Hexafluoropropane)bis(1-hydroxy-1-methyl-3-phenylurea)] | 6.15 | 7.62 |
| CN(O)C(=O)Nc1ccc(Oc2ccc(NC(=O)N(C)O)cc2)cc1 [Example 6, 4,4'-Oxybis(1-hydroxy-1-methyl-3-phenylurea)] | 6.30 | 6.67 |
| CN(O)C(=O)Nc1cccc(NC(=O)N(C)O)c1 [Example 7, 1,1'-(m-Phenylene)bis(3-hydroxy-3-methylurea)] | 6.26 | 5.23 |
| CN(O)C(=O)Nc1cccc2c(NC(=O)N(C)O)cccc12 [Example 8, 1,1'-(1,5-Naphthalene)bis(3-hydroxy-3-methylurea)] | 6.15 | 5.25 |
| CN(O)C(=O)N[C@H]1CC[C@H](NC(=O)N(C)O)CC1 [Example 9, trans-1,4-Cyclohexanebis(3-hydroxy-3-methylurea)] | 4.76 | < 5.00 |
| O=C(NCCCCCCNC(=O)N(O)Cc1ccccc1)N(O)Cc1ccccc1 [Example 10, 1,1'-Hexamethylenebis(3-hydroxy-3-benzylurea)] | 5.70 | 7.00 |
| COc1cc(-c2ccc(NC(=O)N(C)O)c(OC)c2)ccc1NC(=O)N(C)O [Example 11] | 6.46 | 7.00 |
